The numbers were not newly measured in patent US8293868B2 (priority 2004, dated 2012), which cites them from elsewhere.

In the data set the test system is α-subunit of the P. americana high conductance calcium-activated potassium channel (pSlo).

For charybdotoxin, the “block of pSlo channels previously reported” value was “about 80%”.
